# Reference: PMC7711741 (Journal of medicinal chemistry, 2015)
# Experiments:
# [1] = target: murine uPA (Mus musculus, UniProt P06869); test: Ki determination, chromogenic substrate S-2444; assay type: biochemical; conditions: for fold increase in Ki for muPA: versus peptide 2
# [2] = system: huPA-H99Y; test: Ki determination, chromogenic substrate S-2444; assay type: biochemical, human; conditions: versus peptide 2
# [3] = target: human PK (Homo sapiens, UniProt P03952); test: Ki determination, chromogenic substrate S-2302; assay type: biochemical; conditions: versus mupain-1–16
# Sequence of human PK (P03952 20-638): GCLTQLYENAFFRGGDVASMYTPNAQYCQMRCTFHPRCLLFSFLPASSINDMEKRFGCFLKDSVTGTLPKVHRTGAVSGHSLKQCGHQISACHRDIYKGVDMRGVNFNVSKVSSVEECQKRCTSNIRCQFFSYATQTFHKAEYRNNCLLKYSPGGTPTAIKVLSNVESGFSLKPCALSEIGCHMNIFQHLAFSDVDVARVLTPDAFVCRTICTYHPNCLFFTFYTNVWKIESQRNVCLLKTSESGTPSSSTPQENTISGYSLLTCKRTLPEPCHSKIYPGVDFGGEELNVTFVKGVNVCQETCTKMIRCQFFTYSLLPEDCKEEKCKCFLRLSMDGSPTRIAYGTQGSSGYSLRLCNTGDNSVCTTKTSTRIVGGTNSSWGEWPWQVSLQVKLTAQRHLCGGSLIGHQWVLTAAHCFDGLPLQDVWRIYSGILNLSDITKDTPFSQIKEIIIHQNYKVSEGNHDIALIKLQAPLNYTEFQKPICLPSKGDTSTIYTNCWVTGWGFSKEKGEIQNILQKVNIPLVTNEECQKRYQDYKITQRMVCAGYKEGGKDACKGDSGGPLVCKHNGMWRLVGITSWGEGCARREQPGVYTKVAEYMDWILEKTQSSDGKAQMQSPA
# Sequence of murine uPA (P06869 21-433): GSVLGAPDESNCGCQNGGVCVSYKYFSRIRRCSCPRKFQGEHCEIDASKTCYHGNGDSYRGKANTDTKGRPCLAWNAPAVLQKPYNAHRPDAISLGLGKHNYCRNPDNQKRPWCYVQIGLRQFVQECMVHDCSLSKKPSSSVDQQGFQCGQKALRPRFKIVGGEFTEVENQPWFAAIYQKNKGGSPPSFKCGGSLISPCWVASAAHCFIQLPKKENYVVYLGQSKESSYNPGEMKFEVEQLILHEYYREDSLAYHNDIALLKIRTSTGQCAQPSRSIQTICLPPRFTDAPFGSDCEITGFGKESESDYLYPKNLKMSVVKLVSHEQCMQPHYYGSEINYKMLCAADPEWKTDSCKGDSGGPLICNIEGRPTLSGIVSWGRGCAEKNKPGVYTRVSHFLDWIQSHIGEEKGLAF
fold weakened affinity to muPA ([1]; versus peptide 1),fold increase in Ki for muPA [1] [fold],fold increase in Ki for huPA-H99Y [2] [fold],Substance,fold lower Ki for inhibition of hPK [3] [fold]
about 10 fold,,,CPAYS[L-3-(N-amidino-4-piperidyl)alanine]AL[KAc]C [peptide 2],
,100,100,CPARS[L-3-(N-amidino-4-piperidyl)alanine]AL[KAc]C [peptide 3],
,100,100,CPAKS[L-3-(N-amidino-4-piperidyl)alanine]AL[KAc]C [peptide 4],
,,,CPAYS[L-3-(N-amidino-4-piperidyl)alanine]-ALDC [peptide 1],10
